Earlier results as cited in patent US20090062239A1, “THROMBIN RECEPTOR ANTAGONISTS AS PROPHYLAXIS TO COMPLICATIONS FROM CARDIOPULMONARY SURGERY” (Schering Corporation, priority 2005, published 2009).

What was measured:
[1] = treated patients, cardiac/coronary surgery
[2] = vein grafts closing off between two weeks and one year after CABG surgery
[3] = high-risk patients undergoing primary CABG, those on aspirin, reoperative bypass

COC(=O)[C@H](c1ccccc1Cl)N1CCc2sccc2C1 [clopidogrel]
risk for postoperative hemorrhage [1]: greater risk

abciximab
risk for postoperative hemorrhage [1]: greater risk

CC(=O)Oc1ccccc1C(=O)O [aspirin]
reduction of later vein graft closings [2]: 50%

Aprotinin
postoperative blood loss [3]: significantly decreases | transfusion requirements (both units and number of patients) [3]: significantly decreases

low-molecular weight heparin
risk for postoperative hemorrhage [1]: greater risk
